Test results taken from PMC8910697, “Development of VPC-70619, a Small-Molecule N-Myc Inhibitor as a Potential Therapy for Neuroendocrine Prostate Cancer” (International Journal of Molecular Sciences, 2022).
“Also recorded” adds a separate entry of the source.

Columns and labels:
[1] = Microsomal stability assay; assay type: in vitro ADME, Mouse; conditions: mouse liver microsomes, 1 µM compound
Method: A microsomal stability assay was performed using the Corning Gentest NADPH Regenerating System (Corning, #451220/41200) (Corning, NY, USA). Mouse liver microsomes (MLM) (Xenotech, M1000) (Kansas City, KS, USA) and compounds were diluted to a final concentration of 0.15 mg/mL and 1 μM respectively. These were prepared into a 500 μL solution with 100 mM potassium phosphate buffer (pH = 7.4). Imipramine was used as a control. NADPH solutions A and B were mixed in a 5:1 ratio, and 24 μL of the NADPH was added to each of the MLM/compound samples at 30 s intervals. At time points 10, 20, and 45 min, 100 μL of reaction was added to the stopping solution. Samples were centrifuged at 18,000× g and incubated at 4 °C for 10 min. Samples were then loaded onto a LC-MS 96-well plate for analysis.

[2] = molecular target: T1, N-Myc-Max heterodimer (Homo sapiens, UniProt P04198+P61244); assay: Proximity ligation assay (PLA) in LNCaP-NMYC cells; assay type: cell-based; conditions: 10 µM, 72 h
T1 construct: expressed in transfected cells; host or cells: LNCaP-NMYC cells (gift from David Rickman)
Method: To confirm that 70619 could disrupt the binding of N-Myc-Max DBD to DNA, we performed a bio-layer interferometry (BLI) assay where we immobilized biotinylated E-box sequence on streptavidin sensors, and we evaluated recombinant N-Myc-Max binding to the DNA in the presence of increasing concentrations of VPC-70619. […] We observed a similar number of interactions when comparing the ratio of signal per nuclei in the presence or absence of the compound.
LNCaP-NMYC cells were seeded on coverslips at a density of 10^5 cells per well of a 6-well plate. After incubation for 24 h the cells were treated with 10 μM of either 10074-G5 or 70619 for 72 h. The coverslips were fixed with methanol:acetone (3:1) and incubated with primary antibodies n-Myc Antibody (NMYC-1) (Novus Biologicals NB200-109) (Littleton, CO, USA) and MAX Antibody (C-17) (Santa Cruz sc-197) (Dallas, TX, USA) overnight at 4 °C. PLA was conducted using the Duolink In Situ Detection Reagents Red kit (Sigma DUO92008) according to the manufacturer’s protocol. The coverslips were then mounted on slides with VECTASHIELD mounting media with DAPI, and images were taken on ZEISS 780 confocal microscope at 40× magnification.

T1 sequence (P04198 whole entry): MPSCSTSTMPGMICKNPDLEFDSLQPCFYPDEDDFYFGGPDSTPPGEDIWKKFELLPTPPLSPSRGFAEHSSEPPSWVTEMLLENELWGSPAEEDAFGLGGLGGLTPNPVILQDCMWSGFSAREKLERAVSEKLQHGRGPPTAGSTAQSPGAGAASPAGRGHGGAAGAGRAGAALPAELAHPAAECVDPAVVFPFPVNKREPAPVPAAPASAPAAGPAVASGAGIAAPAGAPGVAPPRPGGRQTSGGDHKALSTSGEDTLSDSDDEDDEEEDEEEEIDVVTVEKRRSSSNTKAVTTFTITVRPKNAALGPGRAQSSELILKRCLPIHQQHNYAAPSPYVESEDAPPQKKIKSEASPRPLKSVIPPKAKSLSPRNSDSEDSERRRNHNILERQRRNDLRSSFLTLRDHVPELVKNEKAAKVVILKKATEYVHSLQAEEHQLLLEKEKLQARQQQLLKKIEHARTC
T1 sequence (P61244 whole entry): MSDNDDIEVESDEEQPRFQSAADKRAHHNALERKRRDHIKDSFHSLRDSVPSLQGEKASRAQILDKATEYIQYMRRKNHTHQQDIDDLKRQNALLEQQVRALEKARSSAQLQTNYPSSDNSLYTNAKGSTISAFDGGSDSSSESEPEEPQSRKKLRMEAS

O=[N+]([O-])c1ccc(Nc2ccccc2-c2ccccc2)c2nonc12 [10074-G5, reference compound]
microsomal half-life (T1/2) [1]: 3 min | effect on N-Myc-Max heterodimer interactions (in words) [2]: significant decrease in the number of interactions; also recorded: the number of interactions is reduced
